# In the METLIN SMRT retention time set (Domingo-Almenara et al. 2019):
# Test: gradient 5% acetonitrile 3 min, to 50% in 2 min, to 85% in 15 min, held 3 min, 100 µL/min
# Details: column: Zorbax Extend-C18 2.1 x 50 mm; eluents: water / acetonitrile, 0.1% formic acid
# Method in brief: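 Pure standards were analyzed in mixtures of ~100 molecules using HPLC coupled to a quadrupole time-of-flight mass spectrometer, in both positive and negative ionization mode. Separation used a Zorbax Extend-C18 column (2.1 × 50 mm, 1.8 μm) at 100 μL/min, with water and acetonitrile each containing 0.1% formic acid. Dead and dwell volumes were 40 μL and 900 μL, and data were collected over 3 months. Retention time was read from computationally picked adduct peaks, each inspected manually.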
row,Structure (SMILES),RP-LC retention time [s]
1,O=C(c1ccco1)N1CCN(c2nc(-c3ccc(Cl)cc3)nc3ccccc23)CC1,747
2,COc1ccc(N2CCN(CC(O)c3ccc(C)cc3)CC2)cc1 (configuration not stated),677
3,CCOc1cccc(CN2C[C@@H](CO)[C@H](c3ccncc3)C2)c1,546
4,COc1ccc(OCC(=O)NCc2cc(-c3cc4ccccc4o3)on2)cc1,893
5,Cc1ccc(-c2nnc(-c3nn(C)c4c3CN(S(=O)(=O)c3c(C)cc(C)cc3C)CC4)o2)cc1,1160
6,CCc1nn2c(CNS(=O)(=O)c3cc(F)cc(F)c3)c(-c3ccccc3)nc2s1,963
7,CCOC(=O)C1CCN(C(=O)CCc2cc3cc(OC)ccc3[nH]c2=O)CC1,701
8,CCCN1C(=O)Cc2ccccc2C1C(=O)NCc1ccccc1Br (configuration not stated),831
9,CCN1C(=O)c2cccnc2Sc2cc(NC(=O)COc3cccc(C)c3)ccc21,931
10,COc1ccc(OCc2nnc3sc(-c4ccc(OC)cc4OC)nn23)cc1,989
11,Cc1nnc(-c2ccc3c(c2)OCO3)o1,706
12,CCN(c1ccccc1)S(=O)(=O)c1ccc(C(=O)Nc2cc(C)no2)cc1,882
13,O=C(c1nc(-c2ccnc(N3CCCCC3)c2)no1)N1CCCCC1,764
14,COc1ccc(C(=C2C(=O)Nc3ccccc32)c2ccc(OC)cc2)cc1,974
15,Cc1noc2ncnc(N3CCCC(C(=O)N4CCC(Cc5ccccc5)CC4)C3)c12 (configuration not stated),986
16,O=C(NCC1CCCO1)N1CCCn2nc(-c3ccncc3)cc2C1 (configuration not stated),551
17,O=C(Nc1ncc(Cc2ccc(Cl)cc2)s1)c1ccco1,869
18,CCCc1cc(N2CCN(C(=O)COc3ccccc3)CC2)nc2nncn12,640
19,COc1ccc(CNC(=O)N(Cc2ccsc2)CC(F)(F)F)cc1OC,812
20,Cc1ccc(-c2ccc(N3CCCC(C(=O)NCCN4CCC(C)CC4)C3)nn2)cc1 (configuration not stated),594
21,CC(C)(CO)NS(=O)(=O)c1cc(-c2nnc(-c3ccccc3)o2)ccc1F,773
22,O=C(NCCCN1CCCC1=O)c1csc(N2CCN(c3ccc(F)cc3)CC2)n1,714
23,O=C1CC[C@@H](C(=O)N2CSC[C@H]2C(=O)O)N1,562

row,Structure (SMILES),RP-LC retention time [s]
1,COc1ccccc1N1CCN(C(=O)c2cc(S(=O)(=O)N3CCCCC3)cn2C)CC1,893
2,O=C(NCCS(=O)(=O)N1CCc2ccccc2C1)c1cc(=O)c2ccccc2o1,733
3,CCOc1ccc(NS(=O)(=O)c2cc(-c3c(CC)noc3NC(C)=O)ccc2OC)cc1,791
4,CCN1c2ccccc2C(=O)NC12CCN(C(=O)Nc1cccc(OC)c1)CC2,703
5,Cc1ccc(-c2nnc(CC(=O)NCCc3cccs3)o2)cc1,771
6,CN1CCc2nnc(C3CCCN3C(=O)Nc3cc(Cl)cc(Cl)c3)n2CC1 (configuration not stated),566
7,Cc1ccc(C)c(S(=O)(=O)N2CC(N(C(=O)NC(C)C)C3CCOCC3)C2)c1,689
8,Cc1cc(NC(=O)CSc2cc(-c3ccccc3)ncn2)no1,780
9,O=C(CCn1nnc2ccccc2c1=O)NCC1CCS(=O)(=O)C1 (configuration not stated),585
10,Cc1ccc(NC(=O)N2CCC(n3cnc4c(C)cccc4c3=O)CC2)cc1,801
11,COc1ccc(C2CC(=O)c3c([nH]c(C(=O)OCC4CCCO4)c3C)C2)cc1OC (configuration not stated),846
12,Cc1ccc(-n2ncc3c(N4CCN(C)CC4)ncnc32)cc1Cl,607
13,O=S(=O)(c1cccnc1)N1CC(c2nc(CCOCc3ccccc3)no2)C1,835
14,CCNC(=O)N1CCc2nc(-c3ccc(F)cc3)ncc2C1,752
15,O=C(Cn1ncccc1=O)Nc1cccc(-c2cn3c(n2)SCC3)c1,530
16,Cc1cccc2nnc(N3CCC(C(=O)NCc4ccccc4F)CC3)n12,591
17,COc1ccc2cc(C(=O)Nc3ccc(F)cc3C)[nH]c2c1,806
18,CCOC(=O)CNC(=O)Cn1c(-c2cccnc2)nc2ccccc21,608
19,COc1ccc(OC)c(NC(=O)C2CC(=O)N(CCc3c[nH]c4ccc(Cl)cc34)C2)c1 (configuration not stated),849
20,CCn1cc(CCN2CCC(C(=O)NC(C)C)CC2)c2cccnc21,567
21,Cc1cc(C)n(-c2nc(CC(=O)N3CCN(c4ccc(F)cc4)CC3)cs2)n1,968
22,CC(=O)Nc1cc(C(=O)NCc2ccccc2C)c2ccc(C)nc2c1,610
23,Cc1ccc(NC(=O)Cn2nc(C)cc2C(=O)Nc2ccc3c(c2)OCO3)cc1,866

row,Structure (SMILES),RP-LC retention time [s]
1,Cn1cc(C(=O)Nc2cccc(Cl)c2)c2nn(-c3ccccc3)c(=O)c-2c1,1040
2,Cc1nnc(-c2cc(NS(C)(=O)=O)c(C)s2)o1,697
3,COc1cc2c(c(OC)c1O)C(=O)CO2,642
4,COc1ccc(N2CC(c3nc(-c4ccc(OC)c(OC)c4)no3)CC2=O)cc1Cl (configuration not stated),884
5,CCN(CC)c1nc2cc(C(=O)N3CCN(c4ccccn4)CC3)ccc2c(=O)n1Cc1ccccc1,729
6,COC(=O)c1cnc2nc(C)ccc2c1Nc1ccc(OC)c(OC)c1,630
7,COc1ccc(-c2cn3c(CC(=O)Nc4ccccc4)csc3n2)cc1,760
8,CCN1CCN(c2ncc3c(n2)CC(c2cc(OC)c(OC)c(OC)c2)CC3=O)CC1 (configuration not stated),564
9,COc1ccc(C(CNC(=O)c2cc(=O)c3cc(C)c(C)cc3o2)N(C)C)cc1 (configuration not stated),644
10,O=S(=O)(c1ccccc1)N1CCCC(c2nc(CCOCC3CC3)no2)C1 (configuration not stated),924
11,CSc1ccc(CNC(=O)COc2nc(C)nc3ccccc23)cc1,734
12,OC[C@H]1O[C@@H](n2cnc3c(NC4CCCCC4)ncnc32)C(O)[C@H]1O (some centres not stated),583
13,CCCc1ccc(S(=O)(=O)N(C)CC2CCOCC2)cc1,1020
14,Cc1oc(-c2[nH]ncc2C(=O)N(C)C)cc1S(=O)(=O)Nc1cccc(Cl)c1,703
15,COc1ccc(NC(=O)C2CCN(c3cnc4nccnc4c3)CC2)cc1Cl,712
16,CCCNC(=O)c1cnn2c3c(cnc12)CCCCCC3,976
17,Cn1nc(-c2nnc(-c3ccc(F)cc3)o2)c2c1CCN(C(=O)Nc1ccc(Cl)cc1)C2,936
18,CC(C(=O)NCCCN1CCCC1=O)C1CCN(C(=O)c2cc3cc(Cl)ccc3[nH]2)CC1 (configuration not stated),698
19,Cn1c(=O)n(CC(=O)NC2CCCCC2)c(=O)c2cnc(-c3ccc(Cl)cc3)nc21,1070
20,CCN1CCN(C(=O)C2CCN(S(=O)(=O)c3cc(-c4noc(C)n4)cs3)CC2)CC1,615
21,O=C([C@@H]1C[C@H](F)CN1C(=O)Nc1cccc(Cl)c1)N1CCCCC1,747
